Experimental data published in ChEMBL document CHEMBL3769402, “Discovery of novel N,N-3-phenyl-3-benzylaminopropionanilides as potent inhibitors of cholesteryl ester transfer protein in vivo” (Bioorg Med Chem, 2016).

Columns and labels:
[1] = molecular target: T1, Cholesteryl ester transfer protein (Homo sapiens, UniProt P11597); experiment: Inhibition of full-length human recombinant CETP expressed in CHO cells by BODIPY-CE dye based fluorescence assay; assay type: cell-based
T1 sequence (P11597 whole entry): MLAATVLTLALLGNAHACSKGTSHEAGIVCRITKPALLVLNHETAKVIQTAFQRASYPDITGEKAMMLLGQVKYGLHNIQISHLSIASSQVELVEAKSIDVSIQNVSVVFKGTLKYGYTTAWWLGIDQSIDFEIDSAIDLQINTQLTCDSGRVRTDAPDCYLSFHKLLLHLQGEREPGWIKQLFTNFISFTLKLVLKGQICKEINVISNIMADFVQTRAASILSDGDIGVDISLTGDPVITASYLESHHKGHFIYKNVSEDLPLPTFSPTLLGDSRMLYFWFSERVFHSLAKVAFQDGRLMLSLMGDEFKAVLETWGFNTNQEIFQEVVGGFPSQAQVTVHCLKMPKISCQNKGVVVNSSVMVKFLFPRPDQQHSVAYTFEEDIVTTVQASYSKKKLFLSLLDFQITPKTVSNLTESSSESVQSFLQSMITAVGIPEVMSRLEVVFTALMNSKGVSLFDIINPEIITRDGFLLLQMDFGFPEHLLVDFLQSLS

CYP450 [2] = experiment: Drug metabolism in KM rat liver microsomes assessed as CYP450 mediated compound oxidation at 100 uM after 17.1 min by LC-MS/MS analysis in presence of NADPH; assay type: ADME; conditions: read-out: Drug metabolism
CYP450 [3] = experiment: Drug metabolism in KM rat liver microsomes assessed as CYP450 mediated compound reduction at 100 uM after 17.1 min by LC-MS/MS analysis in presence of NADPH; assay type: ADME; conditions: read-out: Drug metabolism
Syrian golden hamster [4] = experiment: Decrease in LDL-cholesterol level in high cholesterol/lipid diet fed po dosed golden syrian hamster administered daily for 4 weeks; assay type: functional, organism-based; conditions: Mesocricetus auratus
Syrian golden hamster [5] = experiment: Decrease in LDL-cholesterol level in high cholesterol/lipid diet fed golden syrian hamster at 20 mg/kg/day, po for 4 weeks; assay type: functional; conditions: Mesocricetus auratus, 672 h
Syrian golden hamster [6] = experiment: Decrease in LDL-cholesterol level in high cholesterol/lipid diet fed golden syrian hamster at 50 mg/kg/day, po for 4 weeks; assay type: functional; conditions: Mesocricetus auratus, 672 h
Syrian golden hamster [7] = experiment: Decrease in LDL-cholesterol level in high cholesterol/lipid diet fed golden syrian hamster at 100 mg/kg/day, po for 4 weeks; assay type: functional; conditions: Mesocricetus auratus, 672 h
Syrian golden hamster [8] = experiment: Increase in HDL-cholesterol level in high cholesterol/lipid diet fed po dosed golden syrian hamster administered daily for 4 weeks; assay type: functional, organism-based; conditions: Mesocricetus auratus
Syrian golden hamster [9] = experiment: Increase in HDL-cholesterol level in high cholesterol/lipid diet fed golden syrian hamster at 20 mg/kg/day, po for 4 weeks; assay type: functional, Mesocricetus auratus
Syrian golden hamster [10] = experiment: Increase in HDL-cholesterol level in high cholesterol/lipid diet fed golden syrian hamster at 50 mg/kg/day, po for 4 weeks; assay type: functional, Mesocricetus auratus
Syrian golden hamster [11] = experiment: Increase in HDL-cholesterol level in high cholesterol/lipid diet fed golden syrian hamster at 100 mg/kg/day, po for 4 weeks; assay type: functional, Mesocricetus auratus
Syrian golden hamster [12] = experiment: Toxicity in golden syrian hamster assessed as mortality at 20 to 100 mg/kg/day, po for 4 weeks; assay type: organism-based, Mesocricetus auratus; conditions: in vivo, 672 h

| SMILES | IC50 [1] | also measured |
| --- | --- | --- |
| CCOC(=O)c1ccc(N2CCN(C(=O)CCN(Cc3ccc(F)cc3)c3ccc(Oc4ccccc4)cc3)CC2)cc1 | 6.7 µM |  |
| CCOC(=O)c1ccc(NC(=O)CCN(Cc2cc(C(F)(F)F)cc(C(F)(F)F)c2)c2ccc(Cl)c(Cl)c2)cc1 | 5.4 µM |  |
| COc1ccc(N2CCN(C(=O)CCN(Cc3ccc(F)cc3)c3ccc(Oc4ccccc4)cc3)CC2)cc1 | > 50 µM |  |
| CCOC(=O)c1ccc(NC(=O)CCN(Cc2ccc(F)cc2)c2ccc(-c3ccccc3)cc2)cc1 | 16.7 µM |  |
| CCOC(=O)c1ccc(NC(=O)CCN(c2cccc(Oc3ccccc3)c2)S(=O)(=O)c2ccc(F)cc2)cc1 | 0.15 µM | metabolised at 0.285 h, 100 µM (CYP450 [2]): 36%; metabolised at 0.285 h, 100 µM (CYP450 [3]): 36%; inhibition (Syrian golden hamster [4]): Dose-dependent effect; inhibition in vivo at 20 mg/kg/day (Syrian golden hamster [5]): 19.3%; inhibition in vivo at 50 mg/kg/day (Syrian golden hamster [6]): 36.2%; inhibition in vivo at 100 mg/kg/day (Syrian golden hamster [7]): 45.8%; Activity (Syrian golden hamster [8]): Dose-dependent effect; Activity (Syrian golden hamster [9]): 16.2%; Activity (Syrian golden hamster [10]): 34.7%; Activity (Syrian golden hamster [11]): 48.2%; Activity (Syrian golden hamster [12]): Non-toxic |
| O=C(CCN(Cc1ccc(F)cc1)c1ccc(Cl)c(Cl)c1)Nc1ccc(C(=O)O)cc1 | 9.1 µM |  |
| CCOC(=O)c1ccc(N2CCN(C(=O)CCN(Cc3ccc(C(F)(F)F)cc3)c3ccc(Cl)c(Cl)c3)CC2)cc1 | 18.2 µM |  |
| CCOC(=O)c1ccc(NC(=O)CCN(Cc2ccc(C(F)(F)F)cc2)c2ccc(Cl)c(Cl)c2)cc1 | 9.5 µM |  |
| CCOC(=O)c1ccc(N2CCN(C(=O)CCN(Cc3ccc(F)cc3)c3ccc(Cl)c(Cl)c3)CC2)cc1 | 12.4 µM |  |

Continued, in another order:

| IC50 [1] | SMILES | also measured |
| --- | --- | --- |
| 0.24 µM | CCOC(=O)c1ccc(NC(=O)CCN(Cc2ccc(F)cc2)c2cccc(Oc3ccccc3)c2)cc1 |  |
| 2.9 µM | CCOC(=O)c1ccc(N2CCN(C(=O)CCN(Cc3ccc(F)cc3)c3ccc(Cl)c(-c4ccccc4)c3)CC2)cc1 |  |
| 2.3 µM | CCOC(=O)c1ccc(NC(=O)CCN(c2cc(Cl)cc(-c3ccccc3)c2)S(=O)(=O)c2ccc(F)cc2)cc1 |  |
| 4.9 µM | COc1ccc(N2CCN(C(=O)CCN(Cc3ccc(F)cc3)c3ccc(Cl)c(Cl)c3)CC2)cc1 |  |
| 2 µM | CCOC(=O)c1ccc(NC(=O)CCN(Cc2ccc(F)cc2)c2ccc(Cl)c(Cl)c2)cc1 |  |
| 1.3 µM | CCOC(=O)c1ccc(NC(=O)CCN(c2ccc(Cl)c(-c3ccccc3)c2)S(=O)(=O)c2ccc(F)cc2)cc1 |  |
| 0.69 µM | CCOC(=O)c1ccc(N2CCN(C(=O)CCN(Cc3ccc(F)cc3)c3cccc(Oc4ccccc4)c3)CC2)cc1 |  |
| 2.7 µM | CCOC(=O)c1ccc(NC(=O)CCN(Cc2ccc(F)cc2)c2ccc(Cl)c(-c3ccccc3)c2)cc1 |  |
| 3.4 µM | CCOC(=O)c1ccc(NC(=O)CCN(Cc2ccc(F)cc2)c2cc(Cl)cc(-c3ccccc3)c2)cc1 |  |
